# Experimental data as given in patent US20220151955A1, “KETAMINE FOR THE TREATMENT OF […] AND DISORDERS” (The Ketamine Research Foundation, priority 2019, published 2022).
# Tests used:
# [1] = system: women with postpartum depression; conditions: cited from earlier work
# [2] = Ketamine levels in the breast milk of lactating women after intramuscular ketamine hydrochloride; assay type: in vivo; conditions: 0.5 and 1.0 mg/kg intramuscular
# Experimental: A study of the pharmacodynamics of ketamine in the breast milk of lactating women was performed. Ketamine levels in breast milk were quantified in lactating subjects over time. Four women were given intramuscular injections of ketamine hydrochloride at two doses: 0.5 mg/kg and 1.0 mg/kg at intervals of at least one week apart. Breast milk was collected in one subject at 3 hour intervals through 24 hours, and the succeeding three subjects at 3 hour intervals up to 12 hours. Subjects were of different weights and ethnic backgrounds.
# Administered dosages of ketamine ranged from 28 mg to 76 mg. […] For subjects receiving the 0.5 mg/kg dose, the observed range for ketamine in the breast milk of the subject at the 9 to 12 hour collection period (total expression of milk during the period) ranged from 0.09 mg to 1.66 mg. For subjects receiving the 1.0 mg/kg dose, the observed range for ketamine in the breast milk of the subject at the 9 to 12 hour collection period (total expression of milk during the period) ranged from 1.067 mg to 6.22 mg. The highest ketamine level (6.22 mg) was observed following administration of a 76 mg dose of ketamine hydrochloride.
# [3] = cited from earlier work
# [4] = in vivo; cited from earlier work
structure (smiles),measurement,setting,value
CC(=O)[C@H]1CC[C@H]2[C@@H]3CC[C@H]4C[C@H](O)CC[C@]4(C)[C@H]3CC[C@]12C [brexanolone],women no longer clinically depressed,"[1]; within 60 hours, intravenous over 60 hours, two clinical trials of about 250 women, placebo 25 percent",50%
same,adverse effects experienced by some women,[1]; women who received brexanolone,excessive sedation and sudden loss of consciousness
NC1(c2ccccc2Cl)CCCCC1=O (centres unmarked) [norketamine],levels detectable in breast milk at 12 hours,[2],only minimal levels
same,potency relative to ketamine (estimated),"[3]; active metabolite, as stated in Example 1",one-third the potency of ketamine
same,potency relative to ketamine,[3]; for use in anesthesia,one third the potency of ketamine
CNC1(c2ccccc2Cl)CCCCC1=O (centres unmarked) [ketamine],half-life,[4],less than two and a half hours
same,levels detectable in breast milk at 12 hours,[2],only minimal levels
CN[C@]1(c2ccccc2Cl)CCCCC1=O [S-(+)-ketamine],potency relative to R-(−)-ketamine,[3]; for use in anesthesia,twice as potent as R-(−)-ketamine
